From ChEMBL document CHEMBL1155385, “The identification of a selective dopamine D2 partial agonist, D3 antagonist displaying high levels of brain exposure” (Bioorg Med Chem Lett, 2010)
Converted amounts (≈) assume the structure as drawn.

Legend:
D(2) dopamine receptor = D(2) dopamine receptor (Homo sapiens, UniProt P14416); assay: Partial agonistic activity at human dopamine D2 receptor expressed in CHO cells by assay [35S]GTPgamma assay with scintillation proximity affinity assay; format: functional, cell-based
D(3) dopamine receptor = D(3) dopamine receptor (Homo sapiens, UniProt P35462); assay: Antagonist activity at human dopamine D3 receptor expressed in CHO cells assessed as inhibition of quinperol-induced [35S]GTPgamma binding by scintillation proximity affinity assay; format: functional, cell-based
[1] = target: 5-hydroxytryptamine receptor 2A (Homo sapiens, UniProt P28223); assay: Activity at 5HT2A receptor
[2] = Solubility of the compound; format: physicochemical
[3] = target: 5-hydroxytryptamine receptor 1D (Homo sapiens, UniProt P28221); assay: Binding affinity to 5HT1D receptor
Liver microsomes = assay: Intrinsic clearance in rat liver microsomes; format: ADME, Microsome
[4] = target: Voltage-gated inwardly rectifying potassium channel KCNH2 (Homo sapiens, UniProt Q12809); assay: Displacement of [3H]dofetilide from human ERG by scintillation proximity assay
[5] = Lipophilicity, log D at pH 7.4; format: physicochemical; details: buffer
Histamine H1 receptor = Histamine H1 receptor (Homo sapiens, UniProt P35367); assay: Activity at histamine H1 receptor
[6] = target: T1, 5-hydroxytryptamine receptor 1A (Homo sapiens, UniProt P08908); assay: Binding affinity to 5HT1A receptor
T1 sequence (P08908 whole entry): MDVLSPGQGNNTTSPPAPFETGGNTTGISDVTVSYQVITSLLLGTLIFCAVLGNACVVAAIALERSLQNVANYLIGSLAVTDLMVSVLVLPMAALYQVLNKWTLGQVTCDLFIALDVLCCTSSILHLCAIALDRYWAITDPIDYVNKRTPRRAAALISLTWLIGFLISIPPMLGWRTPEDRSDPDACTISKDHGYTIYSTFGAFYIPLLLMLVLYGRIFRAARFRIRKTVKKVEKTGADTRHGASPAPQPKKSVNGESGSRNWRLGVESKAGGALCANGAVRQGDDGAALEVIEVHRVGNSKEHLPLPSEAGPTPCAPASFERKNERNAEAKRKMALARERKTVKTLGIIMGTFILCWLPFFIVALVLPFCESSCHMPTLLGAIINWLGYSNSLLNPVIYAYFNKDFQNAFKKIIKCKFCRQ

[7] = Intrinsic clearance in human liver microsomes; format: ADME, Microsome
[8] = target: T2, Alpha-1B adrenergic receptor (Homo sapiens, UniProt P35368); assay: Activity at Alpha-1B adrenergic receptor
T2 sequence (P35368 whole entry): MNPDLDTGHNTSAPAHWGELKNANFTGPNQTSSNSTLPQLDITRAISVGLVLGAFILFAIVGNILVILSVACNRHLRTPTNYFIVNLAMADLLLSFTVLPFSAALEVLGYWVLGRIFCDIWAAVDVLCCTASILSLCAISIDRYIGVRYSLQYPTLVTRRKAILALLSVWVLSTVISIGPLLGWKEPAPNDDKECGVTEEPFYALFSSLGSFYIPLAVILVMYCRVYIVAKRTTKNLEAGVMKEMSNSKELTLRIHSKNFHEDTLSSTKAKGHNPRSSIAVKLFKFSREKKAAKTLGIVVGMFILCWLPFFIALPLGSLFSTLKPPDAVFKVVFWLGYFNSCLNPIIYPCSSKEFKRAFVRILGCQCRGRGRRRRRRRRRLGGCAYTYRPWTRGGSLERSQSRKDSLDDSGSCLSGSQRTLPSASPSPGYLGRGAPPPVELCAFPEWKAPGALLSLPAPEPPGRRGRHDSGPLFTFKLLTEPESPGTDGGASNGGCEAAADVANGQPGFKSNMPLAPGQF

Cytochrome P450 2D6 = Cytochrome P450 2D6 (Homo sapiens, UniProt P10635); assay: Inhibition of human recombinant CYP2D6 by spectrofluorimetry; format: ADME
Chain of Cytochrome P450 2D6 (P10635 whole entry): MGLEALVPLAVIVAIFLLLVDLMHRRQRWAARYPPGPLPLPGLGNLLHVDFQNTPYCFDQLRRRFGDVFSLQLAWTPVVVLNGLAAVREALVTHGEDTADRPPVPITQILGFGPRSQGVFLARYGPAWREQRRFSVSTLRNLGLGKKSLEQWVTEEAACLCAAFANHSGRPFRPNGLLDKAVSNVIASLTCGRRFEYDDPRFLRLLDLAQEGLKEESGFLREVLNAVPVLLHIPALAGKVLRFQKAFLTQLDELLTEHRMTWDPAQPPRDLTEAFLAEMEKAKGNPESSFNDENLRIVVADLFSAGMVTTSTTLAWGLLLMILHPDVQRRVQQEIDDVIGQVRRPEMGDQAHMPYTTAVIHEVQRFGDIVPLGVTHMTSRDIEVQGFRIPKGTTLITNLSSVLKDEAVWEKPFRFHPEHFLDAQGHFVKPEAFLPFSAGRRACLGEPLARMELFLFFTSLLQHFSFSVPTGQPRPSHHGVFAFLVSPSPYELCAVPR

Chain of D(3) dopamine receptor (P35462 whole entry): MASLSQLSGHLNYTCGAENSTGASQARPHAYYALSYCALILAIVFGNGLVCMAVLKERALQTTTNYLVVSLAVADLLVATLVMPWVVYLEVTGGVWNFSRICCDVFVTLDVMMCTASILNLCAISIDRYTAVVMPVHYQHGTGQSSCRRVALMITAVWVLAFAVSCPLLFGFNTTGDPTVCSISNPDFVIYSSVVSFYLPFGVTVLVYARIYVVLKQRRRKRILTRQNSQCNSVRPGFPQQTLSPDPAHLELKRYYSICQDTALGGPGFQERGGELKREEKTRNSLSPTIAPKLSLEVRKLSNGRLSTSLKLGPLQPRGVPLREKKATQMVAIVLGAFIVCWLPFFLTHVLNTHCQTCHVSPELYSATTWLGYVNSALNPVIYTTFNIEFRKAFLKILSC
Chain of D(2) dopamine receptor (P14416 whole entry): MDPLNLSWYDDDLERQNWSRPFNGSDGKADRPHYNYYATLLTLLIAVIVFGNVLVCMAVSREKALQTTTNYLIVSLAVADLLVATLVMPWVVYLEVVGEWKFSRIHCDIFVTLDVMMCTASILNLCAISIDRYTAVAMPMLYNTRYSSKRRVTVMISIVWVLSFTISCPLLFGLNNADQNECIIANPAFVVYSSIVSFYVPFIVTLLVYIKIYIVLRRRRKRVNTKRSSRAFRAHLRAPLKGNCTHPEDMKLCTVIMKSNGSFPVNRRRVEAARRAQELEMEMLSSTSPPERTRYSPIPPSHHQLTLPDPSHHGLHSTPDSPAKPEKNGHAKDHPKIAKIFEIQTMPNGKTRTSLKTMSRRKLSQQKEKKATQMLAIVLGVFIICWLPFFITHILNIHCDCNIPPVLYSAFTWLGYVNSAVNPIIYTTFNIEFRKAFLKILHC
Chain of 5-hydroxytryptamine receptor 1D (P28221 whole entry): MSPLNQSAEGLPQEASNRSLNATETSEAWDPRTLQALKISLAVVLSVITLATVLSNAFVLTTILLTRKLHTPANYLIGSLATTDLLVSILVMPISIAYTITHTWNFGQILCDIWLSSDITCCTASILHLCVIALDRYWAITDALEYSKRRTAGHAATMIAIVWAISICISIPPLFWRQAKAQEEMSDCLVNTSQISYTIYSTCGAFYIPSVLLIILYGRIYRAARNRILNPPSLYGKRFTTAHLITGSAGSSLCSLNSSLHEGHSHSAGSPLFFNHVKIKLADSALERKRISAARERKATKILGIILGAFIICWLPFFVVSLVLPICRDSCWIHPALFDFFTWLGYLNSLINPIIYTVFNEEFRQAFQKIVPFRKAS
Chain of Voltage-gated inwardly rectifying potassium channel KCNH2 (Q12809 whole entry): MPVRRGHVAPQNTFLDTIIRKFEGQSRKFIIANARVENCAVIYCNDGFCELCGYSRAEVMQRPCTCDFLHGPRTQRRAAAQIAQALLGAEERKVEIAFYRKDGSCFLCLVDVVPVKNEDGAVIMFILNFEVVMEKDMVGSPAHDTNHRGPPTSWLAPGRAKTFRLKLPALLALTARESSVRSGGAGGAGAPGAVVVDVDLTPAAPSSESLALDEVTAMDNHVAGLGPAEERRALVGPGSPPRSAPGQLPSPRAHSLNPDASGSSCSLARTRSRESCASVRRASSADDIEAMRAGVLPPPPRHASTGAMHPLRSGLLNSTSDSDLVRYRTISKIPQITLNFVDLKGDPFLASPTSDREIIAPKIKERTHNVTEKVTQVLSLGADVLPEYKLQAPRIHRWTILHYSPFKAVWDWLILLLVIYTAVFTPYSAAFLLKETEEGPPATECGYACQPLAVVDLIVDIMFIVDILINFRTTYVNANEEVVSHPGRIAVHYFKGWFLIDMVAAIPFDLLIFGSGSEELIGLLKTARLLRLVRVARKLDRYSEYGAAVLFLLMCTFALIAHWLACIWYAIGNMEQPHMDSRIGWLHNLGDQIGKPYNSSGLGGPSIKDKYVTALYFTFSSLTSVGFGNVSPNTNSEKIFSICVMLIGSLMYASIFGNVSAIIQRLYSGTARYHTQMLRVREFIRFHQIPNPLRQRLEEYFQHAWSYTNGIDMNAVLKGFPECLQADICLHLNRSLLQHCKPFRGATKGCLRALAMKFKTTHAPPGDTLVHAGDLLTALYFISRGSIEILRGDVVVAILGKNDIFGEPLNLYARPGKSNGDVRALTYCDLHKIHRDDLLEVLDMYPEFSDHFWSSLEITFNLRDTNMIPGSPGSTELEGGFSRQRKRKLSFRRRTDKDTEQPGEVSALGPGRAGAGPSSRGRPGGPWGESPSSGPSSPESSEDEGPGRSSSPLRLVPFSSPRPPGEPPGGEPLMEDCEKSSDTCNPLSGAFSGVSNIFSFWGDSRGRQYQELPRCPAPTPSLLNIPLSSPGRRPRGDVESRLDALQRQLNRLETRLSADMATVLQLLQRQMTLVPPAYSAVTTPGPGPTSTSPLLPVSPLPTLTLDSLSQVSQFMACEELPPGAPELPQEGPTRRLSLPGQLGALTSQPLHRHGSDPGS
Chain of Histamine H1 receptor (P35367 whole entry): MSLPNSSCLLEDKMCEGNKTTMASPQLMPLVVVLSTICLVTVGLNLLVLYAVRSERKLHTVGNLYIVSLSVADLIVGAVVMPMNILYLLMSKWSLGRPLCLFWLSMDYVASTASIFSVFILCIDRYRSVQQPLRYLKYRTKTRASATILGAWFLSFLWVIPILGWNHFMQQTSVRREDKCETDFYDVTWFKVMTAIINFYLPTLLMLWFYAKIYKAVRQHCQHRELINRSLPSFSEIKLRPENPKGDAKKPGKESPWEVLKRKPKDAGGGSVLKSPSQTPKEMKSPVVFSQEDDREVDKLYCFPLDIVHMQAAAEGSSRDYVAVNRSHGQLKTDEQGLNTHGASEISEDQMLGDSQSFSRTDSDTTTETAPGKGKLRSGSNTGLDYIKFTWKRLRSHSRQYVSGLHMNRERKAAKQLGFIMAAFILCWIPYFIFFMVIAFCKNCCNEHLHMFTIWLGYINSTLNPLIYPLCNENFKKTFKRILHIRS
Chain of 5-hydroxytryptamine receptor 2A (P28223 whole entry): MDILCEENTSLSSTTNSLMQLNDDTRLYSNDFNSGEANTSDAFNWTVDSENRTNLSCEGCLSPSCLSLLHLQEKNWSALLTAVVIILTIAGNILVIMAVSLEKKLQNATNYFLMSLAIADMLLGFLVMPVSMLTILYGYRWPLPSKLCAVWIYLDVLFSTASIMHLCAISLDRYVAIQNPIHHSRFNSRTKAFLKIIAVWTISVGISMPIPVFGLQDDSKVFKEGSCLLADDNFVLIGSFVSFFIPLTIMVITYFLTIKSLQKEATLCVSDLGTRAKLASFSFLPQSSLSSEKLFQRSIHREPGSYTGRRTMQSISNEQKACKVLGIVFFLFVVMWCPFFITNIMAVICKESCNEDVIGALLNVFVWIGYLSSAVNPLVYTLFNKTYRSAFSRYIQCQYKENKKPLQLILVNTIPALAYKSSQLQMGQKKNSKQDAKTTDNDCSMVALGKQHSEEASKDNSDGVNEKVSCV

Compound | EC50 (D(2) dopamine receptor) [nM] | Ki (D(2) dopamine receptor) [nM] | EC50 (D(3) dopamine receptor) [nM] | Ki (D(3) dopamine receptor) [nM] | other results
O=C1N(CC2CCCCN2)CCN1c1cccnc1 (stereo not drawn) | 501 | > 631 | > 3160 | > 631 | 
Cc1ccc(N2CCN(CCN3CCCCCC3)C2=O)cc1 | > 7940 | 50.1 | > 3160 | 126 | 
O=C1N(CCN2CCCCCC2)CCN1c1ccc(Cl)cc1 | 50.1 | 100 | > 3160 | 79.4 | 
O=C1N(CCN2CCCCCC2)CCN1c1cc(Cl)cc(Cl)c1 | > 7940 | 0.631 | > 3160 | 1.58 | 
Cc1ccccc1N1CCN(CCN2CCCCCC2)C1=O | > 7940 | > 631 | > 3160 | > 631 | 
COc1cccc(N2CCN(CCN3CCCCCC3)C2=O)c1 | > 7940 | 39.8 | > 3160 | 50.1 | 
O=C1N(CCN2CCCCCC2)CCN1c1cccc(C(F)(F)F)c1 | > 7940 | 1.58 | > 3160 | 1 | 
O=C1N(CCN2CCCCCC2)CCN1c1cccnc1 | 7.94 | 100 | > 3160 | 79.4 | 
O=C1N(CCN2CCCCCC2)CCN1c1ccncc1 | > 3160 | 631 | > 3160 | > 631 | 
O=c1n(CCN2CCCCCC2)ccn1-c1cccc(Cl)c1 | 126 | 398 | > 3160 | > 631 | 
O=S1(=O)N(CCN2CCCCCC2)CCN1c1cccc(Cl)c1 | 126 | 200 | > 3160 | 316 | 
O=C1N(CC2CCCNC2)CCN1c1cccc(Cl)c1 (stereo not drawn) | > 7940 | > 631 | > 3160 | > 631 | 
O=C1N(CC2CCNCC2)CCN1c1cccc(Cl)c1 | > 7940 | > 631 | > 3160 | > 631 | 
O=C1N(CC2CCCCN2)CCN1c1cccc(C(F)(F)F)c1 (stereo not drawn) | > 7940 | 20 | > 3160 | 0.251 | 
O=c1n(CCCN2CCCCCC2)ccn1-c1cccc(Cl)c1 | > 7940 | 631 | > 3160 | 126 | 

Now from value to compound, other results behind:

EC50 (D(2) dopamine receptor) [nM] | Ki (D(2) dopamine receptor) [nM] | EC50 (D(3) dopamine receptor) [nM] | Ki (D(3) dopamine receptor) [nM] | Compound | other results
1 | 10 | > 3160 | 5.01 | O=C1N(CCN2CCCCCC2)CCN1c1cccc(Cl)c1 | 
2.51 | 15.8 | > 3160 | 3.98 | CN1CCCCC1CN1CCN(c2cccc(Cl)c2)C1=O (stereo not drawn) | 
10 | 25.1 | > 3160 | 79.4 | Cc1cccc(N2CCN(CCN3CCCCCC3)C2=O)c1 | 
0.631 | 7.94 | > 3160 | 63.1 | O=C1N(CCN2CCCCCC2)CCN1c1ccccc1 | 
0.794 | 2.51 | > 3160 | 15.8 | O=C1N(CCN2CCCCCC2)CCN1c1cccc(F)c1 | 
10 | 63.1 | > 3160 | 251 | O=C1N(CCN2CCCCCC2)CCN1c1ccc(F)cc1 | 
10 | 15.8 | > 3160 | 25.1 | O=C1N(CCN2CCCCCC2)CCN1c1ccc(F)c(Cl)c1 | 
0.631 | 79.4 | > 3160 | 3.98 | O=C1N(CC2CCCCN2)CCN1c1cccc(Cl)c1 (stereo not drawn) | Ki [1]: > 1580 nM; solubility [2]: 148 µg/mL (≈ 504 µM); EC50 [3]: 501 nM; CL (Liver microsomes): 23.7 mL/min/g; IC50 [4]: 7940 nM; logD [5]: 1.24; Ki (Histamine H1 receptor): > 2510 nM; EC50 [6]: 794 nM; CLint scaled [7]: 3.4 mL/min/g; Ki [8]: > 251 nM; IC50 (Cytochrome P450 2D6): 1000 nM
